Molecules are shown by their SMILES.

Assay [1] concerns Metarhizium robertsii (23013-3). The experiment in a line: Determination of fungicide sensitivity, conidia growth in liquid media. The format is cell-based. As to conditions: 5,000 conidia in 0.5 ml YMA, 26° C., visual observation. As for the experimental part: (§1) Conidia of Metarhizium robertsii (15013-1) and Metarhizium robertsii (23013-3) were produced by growing the fungus on potato dextrose agar plates for 1-2 weeks at 23° C. under continuous illumination from fluorescent lights. Conidia were harvested from the plate in water containing Tween-20 (0.01%) and counted using a hemacytometer. Fungicide sensitivity was determined by mixing 5,000 conidia in 0.5 ml of YMA (2 g yeast extract, 4 g malt extract per liter) liquid media containing varying concentrations of commercially available fungicides active against filamentous fungi in a 24 well plate. Plates were incubated for […] at 26° C. and then growth was assessed by visual observation with a stereomicroscope.

In assay [2] the test system is Metarhizium robertsii (15013-1). Described as above. In kind it is cell-based. To be noted: 5,000 conidia in 0.5 ml YMA, 26° C., visual observation. The method, then: as §1

In the case of `N#Cc1c[nH]cc1-c1cccc2c1OC(F)(F)O2` [Fludioxonil], the “growth of 23013-3 conidia compared to a control without any fungicide” value in assay [1] (Fungicide Concentration 3 uM), in assay [1] (Fungicide Concentration 10 uM) and in assay [1] (Fungicide Concentration 30 uM) was “+ (growth of about 10% or about 90% inhibition compared to a control without any fungicide)” in each case. Further, the “growth of 15013-1 conidia compared to a control without any fungicide” value in assay [2] (Fungicide Concentration 3 uM), in assay [2] (Fungicide Concentration 10 uM) and in assay [2] (Fungicide Concentration 30 uM) was “+ (growth of about 10% or about 90% inhibition compared to a control without any fungicide)” throughout.

As for `CO/C=C(/C(=O)OC)c1ccccc1Oc1cc(Oc2ccccc2C#N)ncn1` [Azoxystrobin], the “growth of 23013-3 conidia compared to a control without any fungicide” value in assay [1] (Fungicide Concentration 3 uM) is listed as “+ (growth of about 10% or about 90% inhibition compared to a control without any fungicide)”; in assay [1] (Fungicide Concentration 10 uM) it was “−”; in assay [1] (Fungicide Concentration 30 uM) it was “−”. The “growth of 15013-1 conidia compared to a control without any fungicide” value is recorded as “++ (growth of about 20% or about 80% inhibition compared to a control without any fungicide)” in assay [2] (Fungicide Concentration 3 uM), “+ (growth of about 10% or about 90% inhibition compared to a control without any fungicide)” in assay [2] (Fungicide Concentration 10 uM) and “−” in assay [2] (Fungicide Concentration 30 uM).

As to `c1ccc2[nH]c(-c3cscn3)nc2c1` [Thiabendazole], the “growth of 23013-3 conidia compared to a control without any fungicide” value in assay [1] (Fungicide Concentration 3 uM) is “+++ (growth of about 30% or about 70% inhibition compared to a control without any fungicide)”; in assay [1] (Fungicide Concentration 10 uM), “++++ (growth of about 50% or more compared to a control without any fungicide)”; in assay [1] (Fungicide Concentration 30 uM), “++++ (growth of about 50% or more compared to a control without any fungicide)”. The “growth of 15013-1 conidia compared to a control without any fungicide” value in assay [2] (Fungicide Concentration 3 uM), in assay [2] (Fungicide Concentration 10 uM) and in assay [2] (Fungicide Concentration 30 uM) was “++++ (growth of about 50% or more compared to a control without any fungicide)” in each case.

Source of the values: US11058119B2, “Biologicals and their use in plants” (priority 2015, dated 2021).
